# Experimental data reported in patent publication US8614237B2, “Benzofuran-4,5-diones as selective peptide deformylase inhibitors” (Sloan-Kettering Institute for Cancer Research, priority 2009, dated 2013).
# Key:
# HsPDF [1] = molecular target: T1, HsPDF (Homo sapiens, UniProt Q9HBH1); experiment: HsPDF %I 10uM
# T1 construct: A 63 amino acid N-terminally truncated human peptide deformylase (HsPDF); 6His (C); made in house; host or cells: E. coli BL21 (DE3), co-transformed with the GroES/EL chaperone plasmid
# Description: (§1) Table printed on a drawing sheet, Figure 5
# Head of the field: HsPDF %I 10uM
# (§2) Footnotes: -26 124 % inhibition
# (§3) The patent's description of the figure: FIG. 5.
# Where the first naming reader finds the target: head: HsPDF %I 10uM
# APN = APN %I 100uM
# Description: as §1
# Head of the field: APN %I 100uM
# as §2, §3
# Where the first naming reader finds the target: head: APN %I 100uM
# EcPDF [2] = tested on: EcPDF
# Description: Head of the field: EcPDF %I 10uM
# (§4) Specificity profiling of the derivatives of benzofuran-4,5-diones.
# Where the first naming reader finds the target: head: EcPDF %I 10uM
# EcPDF [3] = tested on: EcPDF; remark: listed apart in the source
# Description: Head of the field: EcPDF %I 100uM
# as §4
# Where the first naming reader finds the target: head: EcPDF %I 100uM
# MMP-1 = MMP-1 %I 100uM
# Description: as §1
# Head of the field: MMP-1 %I 100uM
# as §2, §3
# Where the first naming reader finds the target: head: MMP-1 %I 100uM
# HsPDF [4] = molecular target: T1, HsPDF; experiment: HsPDF %I 100uM
# Description: as §1
# Head of the field: HsPDF %I 100uM
# as §2, §3
# Where the first naming reader finds the target: head: HsPDF %I 100uM
# HsPDF [5] = molecular target: T2, HsPDF (Homo sapiens, UniProt Q9HBH1); experiment: FLUO functional assay (fluorescamine, substrate fMAHA); type: biochemical; conditions: 0.5 μM HsPDF, upper limit 10 μM compound
# T2 construct: A 63 amino acid N-terminally truncated human peptide deformylase (HsPDF); 6His (C); made in house; host or cells: E. coli BL21 (DE3), co-transformed with the GroES/EL chaperone plasmid
# T2 sequence (Q9HBH1 64-243 limits assumed): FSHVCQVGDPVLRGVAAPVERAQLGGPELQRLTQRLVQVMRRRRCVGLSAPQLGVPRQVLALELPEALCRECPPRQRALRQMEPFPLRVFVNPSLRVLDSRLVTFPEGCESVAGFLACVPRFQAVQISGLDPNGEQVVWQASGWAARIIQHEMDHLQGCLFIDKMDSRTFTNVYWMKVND
# Description: High controls consisted of 1% DMSO (v/v). […] The deformylation reaction mixture was incubated for one hour at room temperature. A separate set of plates containing 3 μL of fluorescamine at 1 mg/mL in 100% DMSO was prepared for the labeling step. Then, 17 μL of the reaction mixture from the original set of plates was transferred to the plates containing the fluorescamine solution for the labeling step. The readout was performed on a Perkin Elmer VICTOR^3 V™ Multi label counter, using an excitation wavelength of 355 nm, and an emission wavelength of 460 nm. […] Compounds inducing a variation of fluorescence greater than 20% were flagged as optically active compounds.
# High controls consisted of 1% DMSO (v/v). […] The deformylation reaction mixture was incubated for one hour at room temperature. A separate set of plates containing 3 μL of fluorescamine at 1 mg/mL in 100% DMSO was prepared for the labeling step. Then, 17 μL of the reaction mixture from the original set of plates was transferred to the plates containing the fluorescamine solution for the labeling step. The readout was performed on a Perkin Elmer VICTOR3 V™ Multi label counter, using an excitation wavelength of 355 nm, and an emission wavelength of 460 nm.
SMILES,HsPDF %I 10uM (HsPDF [1]) [%I],APN %I 100uM (APN) [%I],EcPDF %I 10uM (EcPDF [2]) [%I],EcPDF %I 100uM (EcPDF [3]) [%I],MMP-1 %I 100uM (MMP-1) [%I],HsPDF %I 100uM (HsPDF [4]) [%I],IC50 (HsPDF [5]) [nM]
"COc1ccc(C(=O)c2coc3c(Cl)c(Cl)c(O)cc23)cc1 [SKC-BF-Int10F, (6,7-Dichloro-5-hydroxy-benzofuran-3-yl)-(4-methoxyphenyl)-methanone]",4,-4,,,,,
"COc1ccc(C(=O)c2coc3ccc(O)cc23)cc1OC [SKC-BF-Int13, (3,4-Dimethoxy-phenyl)-(5-hydroxy-benzofuran-3-yl)-methanone]",-6,,-26,7,3,8,
"COc1ccc(C(=O)c2coc3c(Br)c(Br)c(O)cc23)cc1OC [SKC-BF-Int14, (6,7-Dibromo-5-hydroxy-benzofuran-3-yl)-(3,4-dimethoxy-phenyl)-methanone]",3,-6,3,-20,-20,,
"COc1ccc(C(=O)c2coc3c(Cl)c(Cl)c(O)cc23)cc1OC [SKC-BF-Int16, (6,7-Dichloro-5-hydroxy-benzofuran-3-yl)-(3,4-dimethoxy-phenyl)-methanone]",-24,,4,-6,,-21,
COc1cc(C(=O)c2coc3ccc(O)cc23)cc(OC)c1OC [SKC-BF-Int19],4,,,7,19,31,
"COc1cc(C(=O)c2coc3c(Br)c(Br)c(O)cc23)cc(OC)c1OC [SKC-BF-Int21, (6,7-Dibromo-5-hydroxy-benzofuran-3-yl)-(3,4,5-trimethoxy-phenyl)methanone]",,,4,7,,5,
"COc1cc(C(=O)c2coc3c(Cl)c(Cl)c(O)cc23)cc(OC)c1OC [SKC-BF-Int22, (6,7-Dichloro-5-hydroxy-benzofuran-3-yl)-(3,4,5-trimethoxy-phenyl)methanone]",,2,4,2,-14,18,
"COc1ccc(C(=O)c2coc3c2C(=O)C(=O)c2ccccc2-3)cc1OC [SKC-NF-02, 3-(3,4-Dimethoxy-benzoyl)-naphtho[1,2-b]furan-4,5-dione]",18,20,17,30,21,36,
"COc1cc(C(=O)c2coc3c2C(=O)C(=O)c2ccccc2-3)cc(OC)c1OC [SKC-NF-03, 3-(3,4,5-Trimethoxy-benzoyl)-naphtho[1,2-b]furan-4,5-dione]",25,,18,21,21,,
"O=C1C(=O)c2c(C(=O)c3ccc(-n4ccnc4)cc3)coc2C(Br)=C1Br [SKI 417499, 3-(4-(1H-imidazol-1-yl)benzoyl)-6,7-dibromobenzofuran-4,5-dione]",,,,,,,1800
"O=C1C(=O)c2c(C(=O)c3ccc4c(c3)OCCO4)coc2C(Br)=C1Br [SKI 417504, 6,7-dibromo-3-(2,3-dihydrobenzo[b][1,4]dioxine-6-carbonyl)benzofuran-4,5-dione]",,,,,,,2300
"O=C1C(=O)c2c(C(=O)c3ccccc3)coc2C(Br)=C1Br [SKI 417508, 3-benzoyl-6,7-dibromobenzofuran-4,5-dione]",,,,,,,3400
"O=C1C(=O)c2c(C(=O)c3ccsc3)coc2C(Cl)=C1Cl [SKI 417512, 6,7-dichloro-3-(thiophene-3-carbonyl)benzofuran-4,5-dione]",,,,,,,1800
"O=C1C(=O)c2c(C(=O)c3ccc(C(=O)O)cc3)coc2C(Br)=C1Br [SKI 417518, 4-(6,7-dibromo-4,5-dioxo-4,5-dihydrobenzofuran-3-carbonyl)benzoic acid]",,,,,,,2300
